Data on eight compounds can be found in patent publication US20130295578A1, “METHODS FOR SCREENING FOR DRUG RESISTANCE IN CANCER TREATMENT” (TRUSTEES OF DARTMOUTH COLLEGE, priority 2011, published 2013).

One series relates to PK; p53Δ/Δ cells. Briefly: ex vivo primary cell 3D culture of PDAC mouse model tumor cells. It counts as cell-based. Conditions: p53Δ/Δ tumor-derived cells. As to the method: (§1) To assess tissue response to different chemotherapeutic treatments, tumor tissues were digested with collagenase to obtain single cell suspensions for accurate cell counting and equal cell seeding in replica experimental wells.
(§2) Murine pancreatic tissue from euthanized animals was mechanically minced and digested with 2 mg/ml of Collagenase Type 4 (Worthington, Lakewood, N.J.) for 1 hour at 37° C. For ex vivo primary cell culture, 10,000 cells per well of 48-well plate were immediately plated in 3% Matrigel™ as described above, except for this modification: RPMI 1640 medium was supplemented with 20% FBS, 1× penicillin/streptomycin and 25 ng/mL amphotericin B (MP Biomedicals, LLC, Solon, Ohio). For secondary cell cultures from tumor lesions of mouse models, cancer (epithelial) cells were selected by carrying out several rounds of diluted plating in RPMI 1640 medium, with a gradual decrease concentration of FBS from 20% to 5%: PK-1 and RInk-1, as previously reported (Seeley et al. 2009. Cancer Res. 69:422-430), or after subcutaneous passage in nude mice (PK-2 and RInk-2). Experiments were conducted with epithelial cells within less than 20 passages.

The test system of another series is PK; p16/p19Δ/Δ cells. The description is as above. Type of series: cell-based. To be noted: p16/p19Δ/Δ tumor-derived cells. The method, then: as §1, §2
Series [1] concerns PK-2 cells. Briefly: modified extracellular matrix-based 3D culture, MTT readout. To be noted: for chemoresistance to treatment: PK-2 compared with COLO-357, at the tested concentrations; for EGF/TGF-β1-induced growth stimulation: 1 nM EGF + 100 pM TGF-β1, inhibitor pre-incubated or added concomitantly. Type of series: cell-based, murine. As to the method: as §2
The next series relates to PDAC patients. To be noted: cited from earlier work.
For series [2], the system named is COLO-357 cells. To be noted: for EGF/TGF-β1-induced growth stimulation: 1 nM EGF + 100 pM TGF-β1, inhibitor pre-incubated or added concomitantly.
Protocol: An equal volume of cell suspension and ice-chilled 6% Matrigel™ (BD biosciences, San Jose, Calif.) in complete medium (RPMI 1640 supplemented with 5% FBS and 1× penicillin/streptomycin) were mixed and dispensed at: 5-15×10^3 cells in 1000 μl per well of 12-well plates or 3-10×10^3 cells in 200 μl per well of 48-well plates on top of a solidified 1% noble agar layer (Difco, Sparks, Md.). Ice-chilled 3% Matrigel™ in complete medium was used to replenish medium every 4 days and/or to administer compounds.
After 4 hours of staining with 2.5 mg/ml of 3-(4,5-Dimethylthiazol-2-yl)-2,5-diphenyltetrazolium bromide (MTT; Sigma) in PBS, plates were scanned and images were stored as high resolution (1200 dpi) grayscale TIFF files. Signal intensity and density was quantified using Image-Pro Plus (Media Cybernetics, Bethesda, Md.).
Another series has as its system PK-1 and PK-2 cells. Briefly: modified extracellular matrix-based 3D culture. It counts as cell-based, murine. To be noted: kinase inhibitor present. The method, then: as §2
Series [3] relates to BT474 breast cancer cells. To be noted: 3D culture, trastuzumab resistance; cited from earlier work.
The subject of series [4] is COLO-357 cells. The experiment in a line: anchorage-independent growth in soft agar culture. To be noted: COLO-357, soft agar. Type of series: cell-based, human.
Series [5] has as its system PK-2 cells. The experiment in a line: culture on tissue culture-treated plastic plates, morphology and immunostaining. Type of series: cell-based, murine. The text has this:
(§3) To further investigate the effects of extracellular matrix components on integration of growth factor signals in both human and murine pancreatic cancer cells, cellular responses were compared on conventional tissue culture-treated plastic plates and in 3% Matrigel™. […] Thus, cells loosened their tightly packed cobble-stone like arrangement, became more motile and acquired an elongated fibroblast-like shape. […] This effect was not observed in T3M4 cells, whereas the distribution of the cytoskeleton protein tubulin (control marker) was uniform across all epithelial structures. Increased vimentin expression was not observed in these cellular structures.
(§4) Cells cultured in 3% Matrigel™ were collected 4 days after treatment on a 40 μm sieve mesh using chilled PBS to loosen Matrigel™ matrix, fixed in 10% formalin for 1 hour and coated with melted 1% noble agar. Agar plugs were fixed for up to 4 hours in formalin and paraffin-embedded in fully-automated Shandon Pathcentre instrument as described previously (Sempere et al. 2010. Clin Cancer Res. 16:4246-4255). For freshly fixed cell assays, cells were seeded at 2-5×10^3 per well on 48-well plates, treated after 24 hours and collected 48 hours after treatments by rinsing with chilled PBS and fixed in 10% formalin for 30 minutes. Four μm sections of cellular structures in paraffin-embedded or freshly fixed cells were immunostained using antibody conditions and sequential tyramide signal amplification reactions as previously described (Sempere et al. 2010. Clin Cancer Res. 16:4246-4255).

The subject of series [6] is PK-1, PK-2 and RInk-2 cells. Briefly: modified extracellular matrix-based 3D culture, growth factor stimulation. Type of series: cell-based, murine. As to the method:
(§5) To determine how pancreatic cancer cells would integrate potential interactions between EGF and TGF-β1 signals, cells were treated four days after seeding in 3% Matrigel™ with TGF-β1 at a final concentration of 100 pM and/or EGF at 1 nM. […] The growth of ASPC-1, BxPC3 and T3M4 was not affected by TGFB-β1 treatment.
as §2

The test system of series [7] is COLO-357 cells. The experiment in a line: culture on tissue culture-treated plastic plates, morphology and immunostaining. Type of series: cell-based, human.
Excerpt: as §3, §4

Series [8] deals with ASPC-1, BxPC3 and T3M4 cells. The experiment in a line: modified extracellular matrix-based 3D culture, growth factor stimulation. It counts as cell-based, human. The method, then:
as §5

On to `N.N.[Cl][Pt][Cl]` [cisplatin, cis-diamminedichloroplatinum], for which the “number and size of cellular structures in 3D culture” value in the series with PK; p53Δ/Δ cells is “reduced the number and size of cellular structures”; with PK; p16/p19Δ/Δ cells, “reduced the number and size of cellular structures”. For the same compound, the chemoresistance to treatment entry with PK-2 cells [1] is “more chemoresistant”.

Take `Nc1ccn([C@@H]2O[C@H](CO)[C@@H](O)C2(F)F)c(=O)n1` [gemcitabine]: the prolongation of life result in the series with PDAC patients (PDAC) is given as “about 8 weeks”. For the same compound, in the series on COLO-357 cells [2] (human, 4 days, 10 nM), the cytotoxic effect result is “killed most COLO-357 cells”. In addition, the “number and size of cellular structures in 3D culture” value in the series on PK; p53Δ/Δ cells was “reduced the number and size of cellular structures”; in the series on PK; p16/p19Δ/Δ cells it was “reduced the number and size of cellular structures”. In addition, in the series on PK-2 cells [1], the chemoresistance to treatment result is reported as “more chemoresistant”.

With `C[S+]([O-])c1ccc(-c2nc(-c3ccncc3)c(-c3ccc(F)cc3)[nH]2)cc1` (centres unmarked) [SB203580], the EGF/TGF-β1-induced growth stimulation entry in the series on COLO-357 cells [2] (COLO-357, 3D culture) is given as “mild inhibitory effect”. The “stimulatory growth effects of EGF/TGF-β1” value in the series on PK-1 and PK-2 cells is “mild effect”.

Regarding `CC(C)(C)n1nc(-c2ccc(Cl)cc2)c2c(N)ncnc21` [PP2], in series [3], the “activation of PI3K/AKT pathway and chemoresistant effects of TGF-β” value is “prevented activation of PI3K/AKT pathway and disrupted chemoresistant effects of TGF-β”.

As for “TGF-β1: transforming growth factor-β isoform 1, used at 100 pM”, the “size and number of colonies” value in the series on COLO-357 cells [4] was “decreased the size and number of colonies”. Also, the “growth promoting effects of EGF” value with COLO-357 cells [4] (TGF-β1 added to EGF) is “antagonized”. Also, the E-cadherin immunostaining entry was “reduced membranous localization of E-cadherin” with COLO-357 cells [2] (COLO-357, 3D culture) and “reduced membranous localization of E-cadherin” with PK-2 cells [1] (PK-2, 3D culture). Further, the “lowest concentration at which morphological changes were observed” value amounted to 1 pM in the series on COLO-357 cells [2] (COLO-357, 3D culture) and 1 pM with PK-2 cells [1] (PK-2, 3D culture). The morphology result with COLO-357 cells [2] (COLO-357, 3D culture, 100 pM TGF-β1) was “profound morphological changes”; in series [6] (100 pM TGF-β1) it was “profound morphological changes”. For the same compound, the “growth stimulatory effects of EGF” value in the series with COLO-357 cells [2] (COLO-357, 3D culture, TGF-β1 added to EGF) is listed as “greatly enhanced”. For the same compound, the growth entry was “mild growth stimulatory effects” in the series with COLO-357 cells [2] (COLO-357, 3D culture, growth factor treatment); “dramatically enhanced the growth” in series [6] (growth factor treatment four days after seeding); “not affected” in series [8] (100 pM TGF-β1). In the series on COLO-357 cells [2] (COLO-357, growth factor-treated, after 4 and 8 days of incubation), the “size of cellular structures under cisplatin or gemcitabine challenge” value is listed as more than 5 cells. Besides, the “E-cadherin and vimentin immunostaining” value in the series on PK-2 cells [5] (PK-2, on plastic, after TGF-β1 treatment) was “loss of membranous E-cadherin (epithelial marker) and upregulation of intermediate filament vimentin (mesenchymal marker)”; with COLO-357 cells [7] (COLO-357, on plastic, after TGF-β1 treatment), “loss of membranous E-cadherin (epithelial marker) and upregulation of intermediate filament vimentin (mesenchymal marker)”. The “TGF-β1 concentration giving limited morphological changes” value with PK-2 cells [5] (PK-2, plastic culture) was 20 pM; in the series with COLO-357 cells [7] (COLO-357, plastic culture), 20 pM. For the same compound, the “TGF-β1 concentration giving overt morphological changes” value in the series with PK-2 cells [5] (PK-2, plastic culture) stood at 200 pM; in the series on COLO-357 cells [7] (COLO-357, plastic culture) it was 200 pM. The “proliferative actions of EGF” value in series [8] (TGF-β1 added to EGF) is given as “did not affect”.

In the case of `C#Cc1cccc(Nc2ncnc3cc(OCCOC)c(OCCOC)cc23)c1` [erlotinib], the “additional increase in survival” value with PDAC patients (addition to gemcitabine as first-line PDAC treatment) is given as 12 days. Moreover, the EGF/TGF-β1-induced growth stimulation entry in the series on COLO-357 cells [2] (COLO-357, 3D culture) was “significantly decreased”; with PK-2 cells [1] (PK-2, 3D culture) it was “significantly decreased”.

For `NC(=O)c1ccc(-c2nc(-c3ccc4c(c3)OCO4)c(-c3ccccn3)[nH]2)cc1` [SB431542], the EGF/TGF-β1-induced growth stimulation result in the series on COLO-357 cells [2] (COLO-357, 3D culture) was “significantly decreased”; in the series on PK-2 cells [1] (PK-2, 3D culture), “significantly decreased”. Besides, the “EGF/TGF-β1-induced growth stimulation, late inhibitor addition” value in the series with COLO-357 cells [2] (COLO-357, inhibitor added 4 days following incubation with EGF/TGF-β1) is “halted further growth stimulation”; in the series with PK-2 cells [1] (PK-2, inhibitor added 4 days following incubation with EGF/TGF-β1), “halted further growth stimulation”.

On to `N#CC(=C(/N)Sc1ccccc1N)/C(C#N)=C(\N)Sc1ccccc1N` [U0126], for which the EGF/TGF-β1-induced growth stimulation entry in the series with COLO-357 cells [2] (COLO-357, 3D culture) is “mild inhibitory effect”. Moreover, the “protective effects of EGF/TGF-β1 against gemcitabine and cisplatin” value in the series with PK-2 cells [1] (PK-2, 3D culture, concomitant inhibitor treatment) was “markedly effective only in PK-2 cells”. For the same compound, the “stimulatory growth effects of EGF/TGF-β1” value in the series with PK-1 and PK-2 cells is listed as “moderate effect”.
